Key:
human cardiac β1AR = target: T1, human cardiac β1AR (Homo sapiens, UniProt P08588); test: AC activity in cardiac plasma membranes from non-failing donor human hearts; type: biochemical; details: agent alone, absence of IgG3 autoantibodies
T1 construct: non-failing human hearts were used as an endogenous system; tissue Cleveland Clinic's Tissue Bank; host or cells: non-failing donor human heart, plasma membrane fraction
Procedure: (§1) Briefly the treated cells were scraped using osmotic lysis buffer (5 mM Tris-HCl, pH 7.4; 5 mM EDTA; 1 mM PMSF; 2 μg/mL Leupeptin and 1 μg/mL Aprotinin) and homogenized by douncing. Cardiac tissue samples from non-failing human hearts were homogenized in osmotic lysis buffer using Polytron® homogenizer. This was followed by toggling the samples for 10 mins. The intact cells and nuclei were removed by centrifuging these samples at 2500 rpm for 5 mins. The collected supernatant was centrifuged at 17500 rpm for 30 minutes to obtain the plasma membrane as pellet. All the above steps were performed at 4° C.

human β1AR [1] = target: T2, human β1AR (Homo sapiens, UniProt P08588); test: phospho-ERK immunoblotting in β1AR-HEK 293 cells; details: agent alone
T2 sequence (P08588 whole entry): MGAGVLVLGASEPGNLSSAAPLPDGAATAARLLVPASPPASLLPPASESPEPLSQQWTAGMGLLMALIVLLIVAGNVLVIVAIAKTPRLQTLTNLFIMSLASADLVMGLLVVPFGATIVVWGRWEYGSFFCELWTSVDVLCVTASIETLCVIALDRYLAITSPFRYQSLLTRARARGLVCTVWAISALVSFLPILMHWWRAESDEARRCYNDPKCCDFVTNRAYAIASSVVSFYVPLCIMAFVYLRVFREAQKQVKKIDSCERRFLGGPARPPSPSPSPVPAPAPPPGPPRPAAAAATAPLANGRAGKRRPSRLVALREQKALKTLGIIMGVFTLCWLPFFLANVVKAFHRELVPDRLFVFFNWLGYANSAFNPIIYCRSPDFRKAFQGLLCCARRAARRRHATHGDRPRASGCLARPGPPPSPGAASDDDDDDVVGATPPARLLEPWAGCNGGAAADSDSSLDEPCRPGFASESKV

human β1AR [2] = target: T2, human β1AR; test: cAMP generation in β1AR-HEK 293 cells (Catchpoint cAMP kit); details: agent alone, 10 μM for 10 min, serum starved cells, vs control
Procedure: cAMP generation assay was performed using whole cell lysates. The assay was done using the standard manufacturer's protocol.

human β1AR [3] = target: T2, human β1AR; test: Adenylyl cyclase (AC) assay on plasma membranes of HEK-β1AR cells (G-protein coupling); type: biochemical; parameters: FLAG; expressed in transfected cells; pcDNA3.1(-) plasmid, a gift from Dr. Yang K. Xiang; details: agent alone, isolated plasma membranes
Procedure: as §1

T1 sequence (P08588 whole entry): as above

AC activity (human cardiac β1AR): activating AC activity
ERK phosphorylation (human β1AR [1]): significantly increased
cAMP generation (human β1AR [2]): significantly increased
AC activity (human β1AR [3]): significantly increased AC activity
Structure (SMILES): CC(CCc1ccc(O)cc1)NCCc1ccc(O)c(O)c1 (stereo not shown) [Dob, dobutamine]

From US20240124594A1, “TREATMENT OF CVD AND SYSTEMIC SCEROSIS WITH BETA-1 ADRENERGIC RECEPTOR ANTIBODIES” (The Cleveland Clinic Foundation, priority 2021, published 2024)
